Measured values as given in PubChem BioAssay (NCI).
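All cell lines were grown in 96-well plates and treated with compound for 48 hours. GI50 = concentration required for 50% inhibition of growth. TGI denotes the concentration required for complete inhibition of growth.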

How the values were obtained:
Test in all cases: NCI tumour cell line growth inhibition, 48 h
EKVX NSCLC = system: EKVX NSCLC
IGROV1 ovarian = system: IGROV1 ovarian
NCI-H23 lung = system: NCI-H23 lung
UO-31 renal = system: UO-31 renal
LOX IMVI melanoma = system: LOX IMVI melanoma
SK-MEL-2 melanoma = system: SK-MEL-2 melanoma
SK-MEL-5 melanoma = system: SK-MEL-5 melanoma
DU-145 prostate = system: DU-145 prostate
PC-3 prostate = system: PC-3 prostate
MDA-MB-435 = system: MDA-MB-435

SMILES	TGI (EKVX NSCLC) [µM]	TGI (IGROV1 ovarian) [µM]	TGI (NCI-H23 lung) [µM]	TGI (UO-31 renal) [µM]	TGI (LOX IMVI melanoma) [µM]	TGI (SK-MEL-2 melanoma) [µM]	TGI (SK-MEL-5 melanoma) [µM]	GI50 (EKVX NSCLC) [µM]	GI50 (IGROV1 ovarian) [µM]	GI50 (NCI-H23 lung) [µM]	GI50 (DU-145 prostate) [µM]	TGI (DU-145 prostate) [µM]	GI50 (UO-31 renal) [µM]	GI50 (PC-3 prostate) [µM]	TGI (PC-3 prostate) [µM]	GI50 (MDA-MB-435) [µM]	TGI (MDA-MB-435) [µM]	GI50 (SK-MEL-2 melanoma) [µM]	GI50 (LOX IMVI melanoma) [µM]	GI50 (SK-MEL-5 melanoma) [µM]
CN(C)CCC[N+]1=Nc2cccc3cccc(c23)N1	> 100	> 100	> 100	> 100	> 100	> 100	34.2													
N#CC(/C(CCCC(=O)Nc1cccc([N+](=O)[O-])c1)=N\NC(=O)c1c(O)ccc2ccccc12)c1nc2ccccc2s1 (stereo not drawn)	> 100	> 100	> 100	> 100		> 100	93.1													
CCOC(=O)C1C(=O)CC(=O)C2CCCCC21 (stereo not drawn)	> 100	> 100	> 100	> 100	> 100	> 100	> 100													
CCc1c(C)c2cc(-n3c(-c4ccc(OC)cc4)csc3=N)c(O)c(C)c2oc1=O	11.1	5.25	5.16	3.65		5.84		1.24	1.08	1.51	3	12.3	0.687	0.752	> 100	0.355	4.16	1.66		
CN(C)N=Nc1ccc(S(N)(=O)=O)cc1	> 100	> 100	> 100	> 100	> 100	> 100	> 100													
CC12O[C@H](C[C@@H](OC(=O)CCC(=O)O)[C@H]1O)n1c3ccccc3c3c4c(c5c6ccccc6n2c5c31)C(=O)NC4=O	> 50	38.8	20.3	3.55	7.88	16.5	6.69	7.28	0.664	1.13			0.201	3.44	> 50	0.708	7.08	0.464	1.47	1.41
CC12CCc3ccccc3C1=NNC(=O)C2 (stereo not drawn)	> 100	> 100	> 100	> 100	> 100	> 100	> 100													
S=C(SSC(=S)N1CCCCC1)N1CCCCC1	> 100		36	> 100	18.1	67.8	59.8	28.4		16.3	15.5	> 100	19.2	12.3	51.4	22	> 100	25.1	5.64	4.34
N#CC1=C(N)OC2=C(CCOc3c2ccc2ccccc32)C1c1ccc(Br)cc1 (stereo not drawn)	> 100		> 100	> 100				> 100		32.8	> 100	> 100	> 100	19.9	53.6	16	61.2			
CCCCCCCCN=C(NCCCCCCCC)SCc1cccc2ccccc12	3.49		2.52	2.86	3.08	3.77	2.8	1.79		1.14	1.8	3.29	1.27	1.49	2.89	1.58	3.03	2.14	1.59	1.47
CC(=O)CC(=O)Nc1ccccc1C(F)(F)F	> 100	> 100	> 100	> 100	> 100	> 100	> 100													
Cc1ccc(-c2nc3sc(C)cn3c2/C=C2\C(=O)Nc3ccc(Cl)cc32)cc1	39.3	27.6	26	> 100	26.7	28.6	30.4	16	12.6	12.4			28.1	22.3	54.4	18	34.8	12.1	13.8	15.5
CC(=O)Nc1ccc(/C=c2\sc3nnc(-c4cccnc4)n3c2=O)cc1	55.2	32.5	31.4	24.7	30.7	46.4	37.8													
CN1CCN(c2nc(N)c(Br)c(Cl)n2)CC1	> 100	> 100	> 100	> 100	> 100	> 100	> 100													
O=C(CCc1ccccc1)CC1OC(=O)C(Cl)=C1Cl (stereo not drawn)	66.1	40.8	53.4	34	40.2	36.1	47													
Cc1[nH]c2cc([N+](=O)[O-])ccc2c1[N+](=O)[O-]	49.6	> 100	58.6	36.2	76.2	31	27.6													
COc1ccc2c(c1)/C(=N/OC(C)=O)c1c-2c(OC)nc2ccccc12	> 100		> 100	> 100	> 100	> 100	> 100	> 100		> 100	> 100	> 100	> 100	> 100	> 100	> 100	> 100	> 100	> 100	> 100
CCN(CC)c1ccc(C2N3CCCCC3[C@@H]3c4[nH]c5ccccc5c4CCN23)cc1 (stereo partly drawn)	> 100	> 100	> 100	> 100			31.1													
CC(=O)[CH-]C(=O)c1ccccc1.CC(=O)[CH-]C(=O)c1ccccc1.CC(=O)[CH-]C(=O)c1ccccc1.[Ga+3]	57.6	46.4	48.3	76.2	31.7	23.6	65.6	22.7	18.6	20.2			26.7					10.8	16.3	23.4
CC(=O)C1C(=O)C(=O)N(CCN2C(=O)C(=O)C(C(C)=O)C2=O)C1=O (stereo not drawn)	> 100	> 100	> 100	> 100	> 100	> 100	> 100													
